Data on 2 molecules can be found in article PMC4147340, “Mode and specificity of binding of the small molecule GANT61 to GLI determines inhibition of GLI-DNA binding” (Oncotarget, 2014).

For one series, the target named is T1, GLI1 (ΔGLI-DM) (Homo sapiens, UniProt P08151, E250A/E298A).
T1 sequence (P08151 234-388 E250A/E298A limits assumed): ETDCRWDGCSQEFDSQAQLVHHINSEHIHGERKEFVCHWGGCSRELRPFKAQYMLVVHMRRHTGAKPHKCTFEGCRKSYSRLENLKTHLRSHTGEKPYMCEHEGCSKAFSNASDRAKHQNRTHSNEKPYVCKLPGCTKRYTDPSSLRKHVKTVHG
The series is described as follows: SPR, ΔGLI-DM immobilized on Ni-NTA chip, GANT61 […] as analyte. It is filed as binding. For orientation: SPR reads the build-up and loss of mass on a sensor chip optically.

The target of a further series is T2, GLI1 (Homo sapiens, UniProt P08151).
T2 construct: Full length GLI1 (OriGene)
T2 sequence (P08151 1-1106): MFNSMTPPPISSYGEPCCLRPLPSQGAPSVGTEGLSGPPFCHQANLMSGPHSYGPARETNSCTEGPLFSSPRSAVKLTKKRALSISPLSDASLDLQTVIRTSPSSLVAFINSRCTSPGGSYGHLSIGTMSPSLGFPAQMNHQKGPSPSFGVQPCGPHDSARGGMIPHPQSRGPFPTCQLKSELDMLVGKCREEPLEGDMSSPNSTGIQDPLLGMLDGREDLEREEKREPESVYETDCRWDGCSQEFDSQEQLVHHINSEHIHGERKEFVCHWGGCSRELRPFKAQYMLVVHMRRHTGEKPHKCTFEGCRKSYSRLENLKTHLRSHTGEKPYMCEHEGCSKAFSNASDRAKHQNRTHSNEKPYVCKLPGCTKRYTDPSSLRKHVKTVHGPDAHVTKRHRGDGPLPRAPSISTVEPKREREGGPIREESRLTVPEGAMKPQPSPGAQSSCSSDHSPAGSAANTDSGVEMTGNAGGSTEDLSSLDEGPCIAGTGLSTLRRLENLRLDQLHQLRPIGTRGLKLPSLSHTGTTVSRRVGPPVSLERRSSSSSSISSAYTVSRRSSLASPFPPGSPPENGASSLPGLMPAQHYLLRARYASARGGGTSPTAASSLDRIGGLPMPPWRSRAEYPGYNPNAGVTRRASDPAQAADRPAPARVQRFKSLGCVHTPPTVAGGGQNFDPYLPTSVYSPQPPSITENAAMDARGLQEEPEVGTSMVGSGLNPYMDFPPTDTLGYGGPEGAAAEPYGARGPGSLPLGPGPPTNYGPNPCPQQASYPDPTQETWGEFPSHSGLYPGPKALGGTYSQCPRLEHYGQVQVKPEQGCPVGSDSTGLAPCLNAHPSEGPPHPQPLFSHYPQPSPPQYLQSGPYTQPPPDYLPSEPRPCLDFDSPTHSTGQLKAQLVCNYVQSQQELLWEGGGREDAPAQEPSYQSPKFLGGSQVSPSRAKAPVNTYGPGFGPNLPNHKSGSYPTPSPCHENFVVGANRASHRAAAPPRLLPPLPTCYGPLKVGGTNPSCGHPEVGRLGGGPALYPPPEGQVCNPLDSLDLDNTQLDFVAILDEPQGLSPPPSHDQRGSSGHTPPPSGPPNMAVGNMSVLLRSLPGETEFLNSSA
As to the kind of experiment: SPR (Biacore […]), GLI1 immobilized on CM5 chip, GANT61 […] as analyte. It is filed as binding.

Series [1] deals with GLI1 (full length, GLI1-WT). The series is described as follows: SPR. Particulars: Biacore 3000, HBS-P buffer, 20 ul/min, 3 min association, 5 min dissociation; pH, salt and temperature not stated.
The subject of series [2] is GLI1 (full length, GLI1-WT). As to the kind of experiment: SPR inhibition. The following applies: Biacore 3000, HBS-P buffer, 20 ul/min, 3 min association, 5 min dissociation; pH, salt and temperature not stated.

For the molecule `CN(C)c1ccccc1CN1CCCN(Cc2ccccc2N(C)C)C1c1ccncc1` [GANT61], the Kd (as a rule, the concentration at which binding is half-saturated) on GLI1 (ΔGLI-DM) stood at 26.1 µM; at GLI1, 7.5 µM.
With “biotinylated GLI1 DNA-binding sequence (21-mer)”, the dissociation constant (Kd) in series [1] came to 5.5 µM. The K half in series [2] is 3.2 µM.
